Measurements reported in ChEMBL document CHEMBL1150344, “Interaction of antagonists with calmodulin: insights from molecular dynamics simulations” (J Med Chem, 2008).
pKd: −log10 of the molar value.

Target: Calmodulin-1 (Homo sapiens, UniProt P0DP23)
Assay: Binding affinity to calmodulin

pKd: 7.74
Structure (SMILES): CCCCOc1ccc([C@@H](C)NCCCNCCC(c2ccccc2)c2ccccc2)cc1OCCCC
